Patent publication US10092002B2, “Herbicidal composition comprising nicosulfuron or its salt and S -metolachlor or its salt” (ISHIHARA SANGYO KAISHA, LTD., priority 2011, dated 2018)

Columns and labels:
Format in all cases: in vivo
[1] = system: common cocklebur (Xanthium strumarium L.); assay: Test Example 1: foliar treatment of common cocklebur in pots, visual growth inhibition rate; settings: foliar treatment at 4.3 to 4.8-leaf stage, 22nd day after treatment
From the text: When the herbicidal activity in a case where two active ingredients are combined, is larger than the simple sum of the respective herbicidal activities of the two active ingredients (the expected activity), it is called a synergistic effect. The activity expected by the combination of two active ingredients can be calculated as follows (Colby S. R., “Weed”, vol. 15, p. 20-22, 1967). E1=α+β-(α×β÷100) In a case where three active ingredients are combined, the activity can be similarly calculated as follows. […] Upland field soil was put into a 1/1,000,000 ha pot, and seeds of common cocklebur (Xanthium strumarium L.) were sown. […] Dual Gold, manufactured by Syngenta Crop Protection AG), SC agent containing terbuthylazine as an active ingredient (tradename: Click, manufactured by BASF), SC agent containing mesotrione as an active ingredient (tradename: Callisto, manufactured by Syngenta Crop Protection AG) and WG agent containing prosulfuron as an active ingredient (tradename: Peak, manufactured by Syngenta Crop Protection AG) were diluted with water in an amount corresponding to 1,000 Uha, and applied for foliar treatment by a small sprayer. On the 22nd day after treatment, the state of growth of the common cocklebur was visually observed to determine the growth inhibition rate in accordance with the following evaluation standard. The growth inhibition rate (%) (measured value) and the growth inhibition rate (%) (calculated value) calculated by the Colby's formula are shown in Table 1.

[2] = system: summergrass (Digitaria ciliaris (Retz.) Koel); assay: Test Example 5: foliar treatment of summergrass in 7 to 9-leaf stage, visual growth inhibition rate; settings: foliar treatment at 7 to 9-leaf stage, 14th day after treatment
From the text: When the herbicidal activity in a case where two active ingredients are combined, is larger than the simple sum of the respective herbicidal activities of the two active ingredients (the expected activity), it is called a synergistic effect. The activity expected by the combination of two active ingredients can be calculated as follows (Colby S. R., “Weed”, vol. 15, p. 20-22, 1967). E1=α+β-(α×β÷100) On the 22nd day after treatment, the state of growth of the common cocklebur was visually observed to determine the growth inhibition rate in accordance with the following evaluation standard. The growth inhibition rate (%) (measured value) and the growth inhibition rate (%) (calculated value) calculated by the Colby's formula are shown in Table 1. […] Upland field soil was put into a 1/1,000,000 ha pot, and seeds of summergrass (Digitaria ciliaris (Retz.) Koel) were sown. When the summergrass reached 7 to 9-leaf stage, predetermined amounts of […] Dual Gold (tradename) were diluted with water (corresponding to 300 L/ha) and applied for foliar treatment by a small sprayer. On the 14th day after treatment, the state of growth of the summergrass was visually observed to determine the growth inhibition rate.

[3] = system: spotted knotweed (Polygonum lapathifolium L.); assay: Test Example 7: soil treatment, residual activity, spotted knotweed sown 14 days after treatment; settings: seeds sown on the 14th day after treatment, 21st day after sowing
From the text: When the herbicidal activity in a case where two active ingredients are combined, is larger than the simple sum of the respective herbicidal activities of the two active ingredients (the expected activity), it is called a synergistic effect. The activity expected by the combination of two active ingredients can be calculated as follows (Colby S. R., “Weed”, vol. 15, p. 20-22, 1967). E1=α+β-(α×β÷100) On the 22nd day after treatment, the state of growth of the common cocklebur was visually observed to determine the growth inhibition rate in accordance with the following evaluation standard. The growth inhibition rate (%) (measured value) and the growth inhibition rate (%) (calculated value) calculated by the Colby's formula are shown in Table 1. […] Upland field soil was put into a 1/500,000 ha pot, and on the next day, predetermined amounts of […] Dual Gold (tradename) were diluted with water (corresponding to 300 L/ha) and applied for soil treatment by a small sprayer. On the 14th day after treatment, seeds of Japanese bristlegrass (Setaria faberi Herrm) and spotted knotweed, (Polygonum lapathifolium L.) were sown. On the 21st day after sowing, the state of growth of the Japanese bristlegrass and the spotted knotweed was visually observed to determined the growth inhibition rate.

Compound	inhibition at 30 g/ha ([1]; Xanthium strumarium, dose 30 g/ha, read-out: Growth inhibition rate (%) of common cocklebur, Measured value) [%]	inhibition at 15 g/ha ([2]; Digitaria ciliaris, dose 15 g/ha, read-out: Growth inhibition rate (%) of summergrass, Measured value) [%]	inhibition at 30 g/ha ([3]; Persicaria lapathifolia, dose 30 g/ha, read-out: Growth inhibition rate (%) of spotted knotweed, Measured value) [%]	Growth inhibition rate (%) of common cocklebur, Measured value ([1]; dose 1000 g/ha) [%]	Growth inhibition rate (%) of summergrass, Measured value ([2]; dose 500 g/ha) [%]	Growth inhibition rate (%) of summergrass, Measured value ([2]; dose 2000 g/ha) [%]	Growth inhibition rate (%) of spotted knotweed, Measured value ([3]; dose 1000 g/ha) [%]
COc1cc(OC)nc(NC(=O)NS(=O)(=O)c2ncccc2C(=O)N(C)C)n1 [Nicosulfuron, 2-(4,6-dimethoxypyrimidin-2-ylcarbamoylsulfamoyl)-N,N-dimethylnicotinamide]	0	53	75				
a mixture of (aRS,1S)-2-chloro-6′-ethyl-N-(2-methoxy-1-methylethyl)aceto-o-toluidide (80 to 100%) and (aRS,1R)-2-chloro-6′-ethyl-N-(2-methoxy-1-methylethyl)aceto-o-toluidide (20 to 0%) [S-metolachlor]				0	0	0	0
